Here are results for four molecules from patent US4461775A, “Hydroxythioether fatty acid derivatives” (McNeilab, Inc., priority 1982, dated 1984).

Assay [1] has as its system guinea pig parenchymal strip (immunological release of SRS-A). The assay is described as follows: guinea pig parenchymal strip: prevention of the contraction of guinea pig parenchymal tissue by immunological release of SRS-A. It counts as cell-based. To be noted: Cavia porcellus; egg albumin challenge of sensitized guinea pig lung strip; chlorpheniramine (10^-4 M), indomethacin (10^-5 M), test compound 30 minutes prior. The protocol: The guinea pigs were sacrificed and lungs removed. Strips of subpleural parenchyma were prepared from the left and right diaphragmatic lobes and suspended in a tissue bath under 1 g of tension. After a one hour equilibration period, a dose response to histamine (10^-7 to 10^-4 M) induced contractions was performed to determine maximal contraction. The tissues were then washed and allowed to relax to baseline. Chlorpheniramine (10^-4 M), indomethacin (10^-5 M) and test compound were added 30 minutes prior to challenge with egg albumin. The response to antigen was measured in milligrams of tension.

Assay [2] deals with guinea pig ileum (SRS-A induced contraction). The assay is described as follows: guinea pig ileum: prevention of the contraction of guinea pig ileum caused by SRS-A. It counts as cell-based. The settings on record: Cavia porcellus; SRS-A induced contraction of isolated guinea pig ileum; atropine and chlorpheniramine (1×10^-5 M) present; read-out: G.P. Ileum IC50. As for the experimental part:
The tissue is exposed to 5 mg/ml histamine at 1-3 minute intervals until a reproducible response is obtained. Atropine (1×10^-5 M) and chlorpheniramine (1×10^-5 M) are added followed by 1-2 biological units of SRS-A. After washing the tissue, the response to BaCl2 (1×10^-3 M) was also noted.

A value given as a limit tells only on which side of the number the result lay.

What is called IC50 is the concentration that gives 50% inhibition. Consider `CCCCCCCCCCC[C@H](O)[C@H](CCCCC(=O)OC)SCCC(=O)OC` (relative stereo) [Example 1, Threo Methyl 7-Hydroxy-6{[2-(methoxycarbonyl)ethyl]thio}octadecanoate], for which the concentration for half-maximal inhibition (IC50) is above 100 µM in assay [1] and 1 µM in assay [2].
In the case of `CCCCCCCCCCC[C@H](O)[C@@H](CCCCC(=O)OC)SCCC(=O)OC` (relative stereo) [Example 4, Erythro Methyl 7-Hydroxy-6-{[2-(methoxycarbonyl)ethyl]-thio}octadecanoate], the IC50 in assay [1] was 10 µM.
As to `CCCCCCCCCCC[C@H](O)[C@H](CCCCC(=O)O)SCCC(=O)O` (relative stereo) [Example 2, Threo 6-(2-Carboxyethyl)thio-7-hydroxyoctadecanoic Acid], the 50% inhibitory concentration (IC50) in assay [1] is 80 µM; in assay [2] it was 0.24 µM.
As to `CCCCCCCCCCCC(O)C(CCCCC(=O)OC)SC[C@H](N)C(=O)OC` (stereo partly drawn) [Example 3, Threo S-(6-Hydroxy-1-methoxycarbonyl-5-heptadecyl)-L-cysteine Methyl Ester], the IC50 in assay [1] is above 100 µM; in assay [2] it was 1.3 µM.
